Reference: article PMC9410537, “Discovery of Ircinianin Lactones B and C—Two New Cyclic Sesterterpenes from the Marine Sponge Ircinia wistarii” (Marine Drugs, 2022)
Like-named read-outs stand apart in the source and are kept apart here.

How the values were obtained:
[1] = test system: T. cruzi Tulahuen strain C2C4; experiment: Activity against T. cruzi in L-6 cells (beta-galactosidase/CPRG); type: cell-based, Trypanosoma cruzi; details: Tulahuen C2C4 in L-6 cells, Table 2 values are means of two independent assays
Method: Activity against T. cruzi. Rat skeletal myoblasts (L-6 cells) were seeded in 96-well microtiter plates at 2000 cells/well in 100 μL RPMI 1640 medium with 10% FBS and 2 mM L-glutamine. After 24 h, the media in each well was removed and replaced with 100 μL of fresh media containing 5000 trypomastigote forms of T. cruzi Tulahuen strain C2C4 containing the β-galactosidase (lacZ) gene. After 48 h, the media was removed from the wells again, and this time, replaced by 100 μL fresh medium with or without 1 from 100 to 0.002 μg/mL. After 96 h of incubation, the plates were inspected under an inverted microscope to assess growth and sterility of the controls. Then, the substrate CPRG/Nonidet (50 μL) was added to all wells. A color reaction developed within 2–6 h and could be read photometrically at 540 nm.

[2] = test system: Trypanosoma brucei rhodesiense STIB900; experiment: Activity against Trypanosoma brucei rhodesiense STIB900 (resazurin); details: Table 2 values are means of two independent assays
Method: Activity against Trypanosoma brucei rhodesiense STIB900. […] Minimum Essential Medium (50 µL) supplemented with 25 mM HEPES, 1 g/L additional glucose, 1% MEM non-essential amino acids (100×), 0.2 mM 2-mercaptoethanol, 1 mM Na-pyruvate and 15% heat inactivated horse serum was added to each well of a 96-well microtiter plate. Serial drug dilutions ranging from 100 to 0.002 μg/mL were prepared. Then, 4 × 10^3 bloodstream forms of T. b. rhodesiense STIB 900 in 50 µL were added to each well and the plate was incubated at 37 °C under a 5% CO2 atmosphere for 70 h. 10 µL of a resazurin solution (resazurin, 12.5 mg in 100 mL double-distilled water) was then added to each well and incubation continued for a further 2–4 h [70]. The plates were read with a Spectramax Gemini XS microplate fluorometer (Molecular Devices Cooperation, Sunnyvale, CA, USA) using an excitation wavelength of 536 nm and an emission wavelength of 588 nm. Data were analyzed using Softmax Pro (Molecular Devices Cooperation, Sunnyvale, CA, USA), which calculated IC50 values by linear regression [71] and 4-parameter logistic regression from the sigmoidal dose inhibition curves.

[3] = test system: L. donovani strain MHOM/ET/67/L82 axenic amastigotes; experiment: Activity against L. donovani axenic amastigotes (resazurin); type: cell-based, Leishmania donovani; details: in vitro, Table 2 values are means of two independent assays
Method: Activity against L. donovani axenic amastigotes. Amastigotes of L. donovani strain MHOM/ET/67/L82 were grown in axenic culture at 37 °C in SM medium at pH 5.4 supplemented with 10% heat-inactivated fetal bovine serum under an atmosphere of 5% CO2 in air. 100 µL of culture medium with 10^5 amastigotes from axenic culture with or without a serial drug dilution were seeded in 96-well microtiter plates. Serial drug dilutions ranged from 100 to 0.002 μg/mL. After 70 h of incubation, the plates were inspected under an inverted microscope to assure growth of the controls and sterile conditions.

[4] = test system: P. falciparum NF54 strain; experiment: In vitro activity against erythrocytic stages of P. falciparum (3H-hypoxanthine incorporation assay); type: cell-based; details: Plasmodium falciparum, Table 2 values are means of two independent assays
Method: Activity against P. falciparum. In vitro activity against erythrocytic stages of P. falciparum was determined using a ^3H-hypoxanthine incorporation assay against the drug-sensitive NF54 strain [76]. Compounds were dissolved in DMSO at 10 mg/mL and further diluted in medium before being added to parasite cultures incubated in RPMI 1640 medium without hypoxanthine, supplemented with HEPES (5.94 g/L), NaHCO3 (2.1 g/L), neomycin (100 U/mL), Albumax^R (5 g/L) and washed human red cells A^+ at 2.5% haematocrit (0.3% parasitaemia). Serial drug dilutions ranged from 100 to 0.002 μg/mL. The 96-well plates were incubated in a humidified atmosphere at 37 °C; 4% CO2, 3% O2, 93% N2. After 48 h 50 μL of ^3H-hypoxanthine (=0.5 μCi) was added to each well of the plate. The plates were incubated for a further 24 h under the same conditions. The plates were then harvested with a Betaplate™ cell harvester (Wallac, Zurich, Switzerland) and the red blood cells were transferred onto a glass fiber filter then washed with distilled water. The dried filters were inserted into a plastic foil with 10 mL of scintillation fluid and counted in a Betaplate™ liquid scintillation counter (Wallac, Zurich, Switzerland). IC50 values were calculated from sigmoidal inhibition curves by linear regression using Microsoft Excel. Chloroquine diphosphate (Sigma C6628) was used as control (IC50 0.006 ± 0.002 μM).

[5] = Observed stability of the isolated compounds; type: physicochemical
Source text: The shift values of the terminal heterocycle were in very good agreement with literature data from similar natural products, bearing a γ-hydroxy-γ-butenolide moiety. Analogous to compound 7, the Δ^8,10 double bond of 8 was defined as E (C-9: δC 16.2 and NOESY cross correlations depicted in Figure 4). Likewise, based on the same observed diagnostic NOE crosspeaks for the indene system (Figure S43B) and for biogenetic reasons, we propose that 8 is 11R*, 15R*, 18S*, 20R*, 21S* configured. […] Therefore, we integrated computational methods and aimed for quantum-mechanical predictions of ^1H and ^13C NMR chemical shifts of a 1S- and a 1R-configured version of 8.
All tests were performed with 1 as a pre-screening for the scaffold’s activity within their respective assays. Based on the results from the pre-screening, the biological evaluation of the structural congeners was planned. Unfortunately, an instability phenomenon affected the purity of the isolated compounds. Due to the limited amounts of the isolated compounds, repurification would not have yielded the required sample quantity for the assays. This reality precluded biological evaluation of the structural congeners 3–8.

[6] = test system: L-6 cells (rat skeletal myoblasts); experiment: In vitro cytotoxicity assay with L-6 cells (resazurin); type: cell-based; details: L6, 70 h, read-out: IC50 L6
Method: In vitro cytotoxicity assay with L-6 cells. Assays were performed in 96-well microtiter plates, each well containing 100 μL of RPMI 1640 medium supplemented with 1% L-glutamine (200 mM) and 10% fetal bovine serum, and 4000 L-6 cells (a primary cell line derived from rat skeletal myoblasts). Serial drug dilutions ranged from 100 to 0.002 μg/mL. After 70 h of incubation, the plates were inspected under an inverted microscope to assure growth of the controls and sterile conditions. 10 μL of resazurin was then added to each well and the plates were incubated for another 2 h. […] Podophyllotoxin (Sigma P4405) was used as control (IC50 0.011 ± 0.005 μM).

With `O=C(Cn1ccnc1[N+](=O)[O-])NCc1ccccc1` [benznidazole, Benznidazole, reference compound] the IC50 ([1]; Trypanosoma cruzi, TULAHUEN, L6, in vitro) was 2310 ± 1150 nM and the IC50 ([1]; in vitro) was 3360 nM.
For `Nc1nc(N)nc(Nc2ccc([As]3SCC(CO)S3)cc2)n1` (stereo not drawn) [melarsoprol, Melarsoprol, reference compound], the IC50 ([2]; Trypanosoma brucei, RHODESIENSE|STIB900, read-out: IC50 T. brucei rhodesiense, in vitro, STIB900 bloodstream forms) was 13 ± 6 nM and the IC50 ([2]; read-out: IC50 T. brucei rhodesiense, in vitro, STIB900 bloodstream forms) was 20 nM.
Work on `CCCCCCCCCCCCCCCCOP(=O)([O-])OCC[N+](C)(C)C` [miltefosine, Miltefosine] yielded an IC50 ([3]; Leishmania donovani) of 650 ± 270 nM and an IC50 [3] of 486 nM.
For `CCN(CC)CCCC(C)Nc1ccnc2cc(Cl)ccc12` (stereo not drawn) [chloroquine, Chloroquine diphosphate, reference compound], the IC50 [4] was 6 nM.
For Ircinianin lactone B [compound 7], the “Stability of isolated compound” value [5] was “unstable”.
`COc1cc([C@@H]2c3cc4c(cc3[C@H](O)[C@H]3COC(=O)[C@H]23)OCO4)cc(OC)c1OC` [Podophyllotoxin, reference compound] gave an IC50 [6] of 11 ± 5 nM.
With Oxoircinianin [compound 3] the “Stability of isolated compound” value [5] was “unstable”.
For `CC(=CC1C=C(C)C2CCC(C)C2C12OC(=O)C(C)=C2O)CCCC1=CC(=O)OC1O` (stereo not drawn) [compound 8, Ircinianin lactone C], the “Stability of isolated compound” value ([5]; rapid decomposition after the NMR measurements) was “unstable”.
With Ircinianin lactone A [compound 6] the “Stability of isolated compound” value [5] was “unstable”.
